In ChEMBL document CHEMBL1124752, “Cyclobut-A and cyclobut-G: broad-spectrum antiviral agents with potential utility for the therapy of AIDS” (J Med Chem, 1990):
Converted amounts (≈) assume the structure as drawn.

Columns and labels:
Human alphaherpesvirus 2 [1] = experiment: Number of survivors per number of HSV-2 infected mice treated with 7.8 mg/kg per day; 0/10; assay type: functional
Human alphaherpesvirus 2 [2] = experiment: Number of survivors per number of HSV-2 infected mice treated with 31.2 mg/kg per day; 0/10; assay type: functional
Human alphaherpesvirus 1 [3] = experiment: Tested for mean day to death of nonsurvivors against HSV-1 infection in mice at 12.5 mg/kg per day; assay type: functional
Human alphaherpesvirus 2 [4] = experiment: Tested for mean day to death of nonsurvivors against HSV-2 encephalitis in mice at 31.2 mg/kg per day; assay type: functional
Human alphaherpesvirus 2 [5] = experiment: Tested for the effective dose required to inhibit HSV-2 encephalitis in infected mice; assay type: functional
Human alphaherpesvirus 2 [6] = experiment: Number of survivors per number of HSV-2 infected mice treated with 125 mg/kg per day; 3/10; assay type: functional
Human alphaherpesvirus 1 [7] = experiment: Tested for mean day to death of nonsurvivors against HSV-1 infection in mice at 3.1 mg/kg per day; assay type: functional
Human alphaherpesvirus 2 [8] = experiment: Tested for mean day to death of nonsurvivors against HSV-2 encephalitis in mice at 125 mg/kg per day; assay type: functional
Human alphaherpesvirus 2 [9] = experiment: Tested for mean day to death of nonsurvivors against HSV-2 encephalitis in mice at 7.8 mg/kg per day; assay type: functional
Murid betaherpesvirus 1 [10] = experiment: Tested for mean day to death of nonsurvivors against systemic MCMV infection in mice at 1.9 mg/kg per day; assay type: functional
Human betaherpesvirus 5 [11] = experiment: In vitro antiviral activity tested against HCMV, EC strain by plaque reduction assay in human foreskin fibroblasts.; assay type: functional
Murid betaherpesvirus 1 [12] = experiment: Number of survivors per number of systemic MCMV infected mice treated with 3.8 mg/kg per day; 10/15; assay type: functional
Murid betaherpesvirus 1 [13] = experiment: In vitro antiviral activity tested against MCMV Smith strain by plaque reduction assay in mouse embryo fibroblasts.; settings: read-out: ED50 (the source's name)
Murid betaherpesvirus 1 [14] = experiment: In vitro antiviral activity tested against MCMV Smith strain by plaque reduction assay in mouse embryo fibroblasts.; assay type: functional; settings: read-out: ID50 (the source's name)
Human betaherpesvirus 5 [15] = experiment: In vitro antiviral activity tested against HCMV, LA strain by plaque reduction assay in human foreskin fibroblasts.; assay type: functional
Murid betaherpesvirus 1 [16] = experiment: Number of survivors per number of systemic MCMV infected mice treated with 33.4 mg/kg per day; 15/15; assay type: functional
Murid betaherpesvirus 1 [17] = experiment: Tested for the effective dose required to inhibit systemic MCMV in infected mice; assay type: functional
Human betaherpesvirus 5 [18] = experiment: In vitro antiviral activity tested against HCMV, Davis strain by plaque reduction assay in human foreskin fibroblasts.; assay type: functional
Human betaherpesvirus 5 [19] = experiment: In vitro antiviral activity tested against HCMV, CH strain by plaque reduction assay in human foreskin fibroblasts.; assay type: functional
Human betaherpesvirus 5 [20] = experiment: In vitro antiviral activity tested against HCMV, AD169 strain by plaque reduction assay in human foreskin fibroblasts.; assay type: functional
Murid betaherpesvirus 1 [21] = experiment: Number of survivors per number of systemic MCMV infected mice treated with 11.2 mg/kg per day; 15/15; assay type: functional
[22] = read-out: ED50 (the source's name)
[23] = read-out: ID50 (the source's name)

`Nc1ncnc2c1ncn2[C@@H]1O[C@H](CO)[C@@H](O)[C@@H]1O` [VIDARABINE] was tested, and the Survivors / treated (Human alphaherpesvirus 2 [1]) was 0, the Survivors / treated (Human alphaherpesvirus 2 [2]) was 0 and the MDD (Human alphaherpesvirus 1 [3]) was 13.5. The MDD (Human alphaherpesvirus 2 [4]) was 9.3, the ED50 (Human alphaherpesvirus 2 [5]) was greater than 125 mg/kg/day and the Survivors / treated (Human alphaherpesvirus 2 [6]) was 3. For the same molecule, the MDD (Human alphaherpesvirus 1 [7]) was 6.9, the MDD (Human alphaherpesvirus 2 [8]) was 11.1 and the MDD (Human alphaherpesvirus 2 [9]) was 7.9.

`Nc1nc2c(ncn2COC(CO)CO)c(=O)[nH]1` [GANCICLOVIR] showed an MDD (Murid betaherpesvirus 1 [10]) of 7.6, an EC50 (Human betaherpesvirus 5 [11]; [22]) of 2.8 mg/L (≈ 11 µM) and an IC50 (Human betaherpesvirus 5 [11]; [23]) greater than 100 mg/L. It also gave a Survivors / treated (Murid betaherpesvirus 1 [12]) of 10, an EC50 (Murid betaherpesvirus 1 [13]) of 1 mg/L (≈ 3.92 µM) and an IC50 (Murid betaherpesvirus 1 [14]) greater than 100 mg/L. The EC50 (Human betaherpesvirus 5 [15]; [22]) was 2.4 mg/L (≈ 9.4 µM), the IC50 (Human betaherpesvirus 5 [15]; [23]) was greater than 100 mg/L and the Survivors / treated (Murid betaherpesvirus 1 [16]) was 15. It also gave an ED50 (Murid betaherpesvirus 1 [17]) of less than 1.9 mg/kg/day, an EC50 (Human betaherpesvirus 5 [18]; [22]) of 3.6 mg/L (≈ 14.1 µM) and an IC50 (Human betaherpesvirus 5 [18]; [23]) greater than 100 mg/L. It also gave an EC50 (Human betaherpesvirus 5 [19]; [22]) of 3.1 mg/L (≈ 12.1 µM), an IC50 (Human betaherpesvirus 5 [19]; [23]) greater than 100 mg/L and an EC50 (Human betaherpesvirus 5 [20]; [22]) of 2.7 mg/L (≈ 10.6 µM). For the same molecule, the IC50 (Human betaherpesvirus 5 [20]; [23]) was greater than 100 mg/L and the Survivors / treated (Murid betaherpesvirus 1 [21]) was 15.
